The source made the active and inactive calls.

Four compounds from ChEMBL document CHEMBL1201862, “PubChem BioAssay data set” (2004) can be followed below.

What all share (assay type): functional
Assay [1] can be described thus: Counterscreen for antagonists of the orexin 1 receptor (OX1R; HCRTR1): Fluorescence-based cell-based high throughput dose response assay to identify antagonists of the parental CHO cell line. [Related pubchem assays (depositor defined):AID434989, AID435008, AID463079, AID485270, AID492963, AID492964, AID492965, AID493232, AID504699, AID504701].
Assay [2] addresses T1, Orexin receptor type 2 (Homo sapiens, UniProt O43614).
T1 sequence (O43614 whole entry): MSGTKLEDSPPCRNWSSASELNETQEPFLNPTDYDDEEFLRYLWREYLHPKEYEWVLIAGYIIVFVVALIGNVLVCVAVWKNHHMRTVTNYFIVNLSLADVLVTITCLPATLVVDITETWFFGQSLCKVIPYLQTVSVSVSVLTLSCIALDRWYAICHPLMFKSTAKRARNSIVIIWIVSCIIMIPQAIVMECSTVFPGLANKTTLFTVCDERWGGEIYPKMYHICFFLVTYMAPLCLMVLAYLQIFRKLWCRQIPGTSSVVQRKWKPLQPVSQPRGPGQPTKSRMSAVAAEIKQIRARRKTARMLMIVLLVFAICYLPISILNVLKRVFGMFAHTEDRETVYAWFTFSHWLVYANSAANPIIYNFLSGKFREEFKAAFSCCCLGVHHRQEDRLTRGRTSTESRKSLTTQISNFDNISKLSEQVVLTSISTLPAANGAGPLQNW
Briefly: Counterscreen assay for antagonists of the orexin 1 receptor (OX1R; HCRTR1): Fluorescence-based cell-based dose response assay for antagonists of the orexin 2 receptor (OX2R; HCRTR2), run by assay provider.

Assay [3] addresses T1, Orexin receptor type 2. Put plainly: Counterscreen assay for antagonists of the orexin 1 receptor (OX1R; HCRTR1): Homogeneous Time Resolved Fluorescence (HTRF)-based cell-based dose response assay for antagonists of the orexin 2 receptor (OX2R; HCRTR2), run by assay provider. Background: Counterscreens check selectivity or assay interference.
A further assay relates to CHO-K1. Put plainly: Counterscreen for antagonists of the orexin 1 receptor (OX1R; HCRTR1): Homogeneous time resolved fluorescence (HTRF)-based cell-based dose response assay to identify antagonists of the parental CHO-K1 cell line. [Related pubchem assays (depositor defined):AID434989, AID435008, AID463079, AID485270, AID492963, AID492964, AID492965, AID493232, AID504699, AID504701]. To be noted: Cricetulus griseus.

In assay [4] the target is T2, Orexin/Hypocretin receptor type 1 (Homo sapiens, UniProt O43613).
T2 sequence (O43613 whole entry): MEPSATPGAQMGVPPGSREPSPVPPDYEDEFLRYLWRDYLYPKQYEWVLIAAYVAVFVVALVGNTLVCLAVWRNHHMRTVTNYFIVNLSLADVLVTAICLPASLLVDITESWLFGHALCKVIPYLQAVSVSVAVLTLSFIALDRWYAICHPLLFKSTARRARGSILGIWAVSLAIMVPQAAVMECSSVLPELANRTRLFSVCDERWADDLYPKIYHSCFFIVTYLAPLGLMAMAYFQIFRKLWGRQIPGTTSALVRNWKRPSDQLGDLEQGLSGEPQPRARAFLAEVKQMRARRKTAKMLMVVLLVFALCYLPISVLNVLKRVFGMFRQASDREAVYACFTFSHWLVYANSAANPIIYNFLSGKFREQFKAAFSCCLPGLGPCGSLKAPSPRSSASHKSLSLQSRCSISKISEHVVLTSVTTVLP
Put plainly: Fluorescence-based cell-based high throughput dose response assay for antagonists of the orexin 1 receptor (OX1R; HCRTR1). [Related pubchem assays (depositor defined):AID434989, AID435008, AID463079, AID485270, AID492963, AID492964, AID492965, AID493232, AID504717, AID504718].

Assay [5] addresses T2, Orexin/Hypocretin receptor type 1. Put plainly: Homogeneous Time Resolved Fluorescence (HTRF)-based cell-based high throughput dose response assay for antagonists of the orexin 1 receptor (OX1R; HCRTR1). [Related pubchem assays (depositor defined):AID434989, AID435008, AID463079, AID485270, AID492963, AID492964, AID492965, AID493232, AID504717, AID504718]. In general terms: Time-resolved FRET reads energy transfer from a long-lived donor to a nearby acceptor.

The target in another assay is T3, Caspase-3 (Homo sapiens, UniProt P42574).
T3 sequence (P42574 whole entry): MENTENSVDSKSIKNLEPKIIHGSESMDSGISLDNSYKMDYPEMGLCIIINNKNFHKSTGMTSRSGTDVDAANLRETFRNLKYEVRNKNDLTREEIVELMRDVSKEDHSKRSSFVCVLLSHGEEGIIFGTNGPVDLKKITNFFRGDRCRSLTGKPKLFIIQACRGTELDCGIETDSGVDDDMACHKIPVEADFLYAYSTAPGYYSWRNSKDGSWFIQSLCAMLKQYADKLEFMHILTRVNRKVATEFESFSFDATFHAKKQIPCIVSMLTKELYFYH
Briefly: SAR Analysis of small molecule inhibitors of Sentrin-specific proteases (SENPs) using a Caspase-3 Selectivity assay. [Related pubchem assays (depositor defined):AID2540, AID2599, AID434973, AID489001].

Assay [6] concerns the target T4, Sentrin-specific protease 8 (Homo sapiens, UniProt Q96LD8).
T4 sequence (Q96LD8 whole entry): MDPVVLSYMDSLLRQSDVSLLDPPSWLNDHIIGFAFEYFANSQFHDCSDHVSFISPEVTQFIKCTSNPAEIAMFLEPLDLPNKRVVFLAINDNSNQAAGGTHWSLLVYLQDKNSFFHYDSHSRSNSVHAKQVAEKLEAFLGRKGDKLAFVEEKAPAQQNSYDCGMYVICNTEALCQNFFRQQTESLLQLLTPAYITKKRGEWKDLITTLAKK
Put plainly: inhibition of human SENP8 cleavage activity – biochemical, luminescence, SAR follow-up (AID 504501).

Assay [7] deals with T5, Sentrin-specific protease 7 (Homo sapiens, UniProt Q9BQF6).
T5 sequence (Q9BQF6 whole entry): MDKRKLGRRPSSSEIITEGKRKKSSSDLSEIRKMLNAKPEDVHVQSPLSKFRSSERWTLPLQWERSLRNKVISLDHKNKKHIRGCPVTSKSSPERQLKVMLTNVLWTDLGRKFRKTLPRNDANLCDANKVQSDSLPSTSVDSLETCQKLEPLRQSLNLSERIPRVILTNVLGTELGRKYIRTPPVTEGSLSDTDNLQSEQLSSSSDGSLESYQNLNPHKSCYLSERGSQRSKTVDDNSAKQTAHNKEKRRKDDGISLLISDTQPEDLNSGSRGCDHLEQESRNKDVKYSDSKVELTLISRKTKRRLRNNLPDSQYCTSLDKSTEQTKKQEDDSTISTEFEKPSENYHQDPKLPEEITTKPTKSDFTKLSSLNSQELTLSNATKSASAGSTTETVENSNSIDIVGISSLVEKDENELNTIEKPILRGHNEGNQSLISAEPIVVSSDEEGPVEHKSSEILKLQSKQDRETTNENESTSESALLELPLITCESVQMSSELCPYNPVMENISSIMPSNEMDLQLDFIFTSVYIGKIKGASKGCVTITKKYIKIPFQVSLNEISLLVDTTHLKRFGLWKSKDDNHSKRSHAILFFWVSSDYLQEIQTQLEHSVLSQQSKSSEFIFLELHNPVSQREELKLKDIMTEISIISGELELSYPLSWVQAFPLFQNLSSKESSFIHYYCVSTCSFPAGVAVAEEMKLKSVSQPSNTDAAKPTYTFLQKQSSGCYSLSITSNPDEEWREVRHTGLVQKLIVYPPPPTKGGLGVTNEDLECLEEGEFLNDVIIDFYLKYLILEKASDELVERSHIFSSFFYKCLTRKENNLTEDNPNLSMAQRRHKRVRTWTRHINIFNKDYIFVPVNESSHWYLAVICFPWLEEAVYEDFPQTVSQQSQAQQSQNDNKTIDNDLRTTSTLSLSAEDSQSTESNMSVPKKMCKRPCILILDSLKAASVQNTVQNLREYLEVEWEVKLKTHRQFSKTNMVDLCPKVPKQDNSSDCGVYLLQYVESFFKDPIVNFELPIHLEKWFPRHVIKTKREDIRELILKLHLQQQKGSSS
Put plainly: inhibition of human SENP7 cleavage activity – biochemical, luminescence, SAR follow-up (AID 504497).

Assay [8] has as its target T6, Sentrin-specific protease 6 (Homo sapiens, UniProt Q9GZR1).
T6 sequence (Q9GZR1 whole entry): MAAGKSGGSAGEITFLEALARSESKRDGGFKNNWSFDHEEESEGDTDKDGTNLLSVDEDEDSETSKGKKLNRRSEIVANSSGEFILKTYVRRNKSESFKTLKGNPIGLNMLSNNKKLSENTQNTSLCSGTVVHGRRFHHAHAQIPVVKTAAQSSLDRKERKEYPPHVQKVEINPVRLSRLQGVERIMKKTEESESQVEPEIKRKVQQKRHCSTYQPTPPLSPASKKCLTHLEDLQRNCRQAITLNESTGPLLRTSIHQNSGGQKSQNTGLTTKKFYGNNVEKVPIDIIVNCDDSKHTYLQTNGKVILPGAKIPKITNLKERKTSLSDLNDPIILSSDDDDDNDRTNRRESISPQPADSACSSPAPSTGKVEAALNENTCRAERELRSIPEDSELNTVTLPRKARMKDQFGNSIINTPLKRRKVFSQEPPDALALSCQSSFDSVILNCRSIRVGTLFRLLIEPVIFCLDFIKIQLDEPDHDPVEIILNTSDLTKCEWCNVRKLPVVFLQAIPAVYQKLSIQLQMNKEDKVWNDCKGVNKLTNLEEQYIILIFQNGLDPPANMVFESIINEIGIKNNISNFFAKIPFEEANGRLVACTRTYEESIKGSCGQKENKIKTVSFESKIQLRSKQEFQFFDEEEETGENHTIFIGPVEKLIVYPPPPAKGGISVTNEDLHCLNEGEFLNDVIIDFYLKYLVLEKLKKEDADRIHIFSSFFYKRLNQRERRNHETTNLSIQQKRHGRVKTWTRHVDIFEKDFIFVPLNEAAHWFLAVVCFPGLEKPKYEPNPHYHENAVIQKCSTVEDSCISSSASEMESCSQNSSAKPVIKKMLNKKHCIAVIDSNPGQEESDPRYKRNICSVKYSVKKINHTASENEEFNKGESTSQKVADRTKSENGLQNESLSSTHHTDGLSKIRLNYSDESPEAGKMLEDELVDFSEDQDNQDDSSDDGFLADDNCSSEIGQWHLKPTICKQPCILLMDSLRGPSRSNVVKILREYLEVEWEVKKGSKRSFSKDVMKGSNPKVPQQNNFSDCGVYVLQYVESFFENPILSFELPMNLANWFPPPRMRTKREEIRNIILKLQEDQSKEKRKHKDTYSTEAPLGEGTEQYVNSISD
Briefly: SAR Analysis of small molecule inhibitors of Sentrin-specific protease 6 (SENP6) using a Luminescent assay. [Related pubchem assays (depositor defined):AID2582, AID2599].

Assay [9] deals with Tyrosine-protein kinase Blk (Homo sapiens, UniProt P51451).
The target in assay [10] is Macrophage colony-stimulating factor 1 receptor (Homo sapiens, UniProt P07333).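 Also: value comes from the Navigating the Kinome screening panel, CSF1R member.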
The target in assay [11] is Tyrosine-protein kinase Lyn (Homo sapiens, UniProt P07948).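 Also: lyn as one member of a kinase panel.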
Assay [12] addresses Vascular endothelial growth factor receptor 1 (Homo sapiens, UniProt P17948).
Assay [13] concerns the target Proto-oncogene tyrosine-protein kinase Src (Homo sapiens, UniProt P12931).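 Also: SRC entry within a kinome-wide kinase profiling panel.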
Assay [14] has as its target Vascular endothelial growth factor receptor 3 (Homo sapiens, UniProt P35916).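 Also: value from a kinome-wide profiling panel, with FLT4 as the panel member.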
Assay [15] concerns the target Tyrosine-protein kinase Fyn (Homo sapiens, UniProt P06241).
For assay [16], the target named is Tyrosine-protein kinase ABL1 (Homo sapiens, UniProt P00519).
The target of assay [17] is Receptor-type tyrosine-protein kinase FLT3 (Homo sapiens, UniProt P36888).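 Also: FLT3 was tested as one member of a kinome-wide kinase panel.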
Assay [18] addresses Tyrosine-protein kinase Lck (Homo sapiens, UniProt P06239).
The target in assay [19] is Vascular endothelial growth factor receptor 2 (Homo sapiens, UniProt P35968).
For assay [20], the target named is Mast/stem cell growth factor receptor Kit (Homo sapiens, UniProt P10721).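 Also: KIT entry within a kinase panel assay.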

Chain of Tyrosine-protein kinase Blk (P51451 whole entry): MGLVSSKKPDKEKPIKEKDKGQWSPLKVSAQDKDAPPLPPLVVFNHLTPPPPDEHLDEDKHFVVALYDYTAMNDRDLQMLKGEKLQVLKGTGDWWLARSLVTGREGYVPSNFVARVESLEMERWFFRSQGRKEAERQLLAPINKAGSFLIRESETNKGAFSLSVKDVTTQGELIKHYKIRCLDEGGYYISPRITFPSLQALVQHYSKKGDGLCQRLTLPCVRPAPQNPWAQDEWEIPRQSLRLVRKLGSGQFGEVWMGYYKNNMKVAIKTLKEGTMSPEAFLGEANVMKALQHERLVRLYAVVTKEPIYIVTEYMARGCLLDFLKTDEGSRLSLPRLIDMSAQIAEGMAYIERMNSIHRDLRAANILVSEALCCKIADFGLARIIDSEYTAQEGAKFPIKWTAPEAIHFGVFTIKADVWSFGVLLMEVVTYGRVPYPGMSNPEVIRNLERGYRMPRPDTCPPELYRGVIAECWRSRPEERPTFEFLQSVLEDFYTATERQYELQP
Chain of Tyrosine-protein kinase ABL1 (P00519 whole entry): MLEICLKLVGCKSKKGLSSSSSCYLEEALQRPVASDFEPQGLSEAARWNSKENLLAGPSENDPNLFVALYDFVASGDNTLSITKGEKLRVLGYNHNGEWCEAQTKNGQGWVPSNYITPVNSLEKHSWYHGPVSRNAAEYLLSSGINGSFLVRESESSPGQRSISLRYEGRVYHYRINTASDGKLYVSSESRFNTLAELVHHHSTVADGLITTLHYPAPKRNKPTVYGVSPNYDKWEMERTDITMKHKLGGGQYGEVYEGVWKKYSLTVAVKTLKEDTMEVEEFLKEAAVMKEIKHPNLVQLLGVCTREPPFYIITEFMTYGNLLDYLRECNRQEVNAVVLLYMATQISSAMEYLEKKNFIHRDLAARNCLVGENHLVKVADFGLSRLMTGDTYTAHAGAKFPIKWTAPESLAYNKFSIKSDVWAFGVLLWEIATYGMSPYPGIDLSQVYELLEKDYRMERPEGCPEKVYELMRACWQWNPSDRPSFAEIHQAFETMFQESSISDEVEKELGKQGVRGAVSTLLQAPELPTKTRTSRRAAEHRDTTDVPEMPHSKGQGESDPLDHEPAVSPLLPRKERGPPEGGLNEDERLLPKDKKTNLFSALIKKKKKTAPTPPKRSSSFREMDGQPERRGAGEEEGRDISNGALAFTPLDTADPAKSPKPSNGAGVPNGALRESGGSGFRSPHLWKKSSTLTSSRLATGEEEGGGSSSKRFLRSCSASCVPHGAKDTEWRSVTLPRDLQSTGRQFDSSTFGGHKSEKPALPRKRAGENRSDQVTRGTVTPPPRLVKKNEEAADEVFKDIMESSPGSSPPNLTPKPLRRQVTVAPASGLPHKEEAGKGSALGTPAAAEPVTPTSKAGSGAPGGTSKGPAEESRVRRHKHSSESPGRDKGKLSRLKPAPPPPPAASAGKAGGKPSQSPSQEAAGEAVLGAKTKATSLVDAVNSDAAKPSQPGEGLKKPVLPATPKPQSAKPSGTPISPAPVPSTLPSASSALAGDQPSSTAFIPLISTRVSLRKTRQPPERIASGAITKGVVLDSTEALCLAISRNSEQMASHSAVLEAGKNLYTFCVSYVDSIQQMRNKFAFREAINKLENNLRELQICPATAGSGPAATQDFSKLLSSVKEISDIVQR
Chain of Vascular endothelial growth factor receptor 2 (P35968 whole entry): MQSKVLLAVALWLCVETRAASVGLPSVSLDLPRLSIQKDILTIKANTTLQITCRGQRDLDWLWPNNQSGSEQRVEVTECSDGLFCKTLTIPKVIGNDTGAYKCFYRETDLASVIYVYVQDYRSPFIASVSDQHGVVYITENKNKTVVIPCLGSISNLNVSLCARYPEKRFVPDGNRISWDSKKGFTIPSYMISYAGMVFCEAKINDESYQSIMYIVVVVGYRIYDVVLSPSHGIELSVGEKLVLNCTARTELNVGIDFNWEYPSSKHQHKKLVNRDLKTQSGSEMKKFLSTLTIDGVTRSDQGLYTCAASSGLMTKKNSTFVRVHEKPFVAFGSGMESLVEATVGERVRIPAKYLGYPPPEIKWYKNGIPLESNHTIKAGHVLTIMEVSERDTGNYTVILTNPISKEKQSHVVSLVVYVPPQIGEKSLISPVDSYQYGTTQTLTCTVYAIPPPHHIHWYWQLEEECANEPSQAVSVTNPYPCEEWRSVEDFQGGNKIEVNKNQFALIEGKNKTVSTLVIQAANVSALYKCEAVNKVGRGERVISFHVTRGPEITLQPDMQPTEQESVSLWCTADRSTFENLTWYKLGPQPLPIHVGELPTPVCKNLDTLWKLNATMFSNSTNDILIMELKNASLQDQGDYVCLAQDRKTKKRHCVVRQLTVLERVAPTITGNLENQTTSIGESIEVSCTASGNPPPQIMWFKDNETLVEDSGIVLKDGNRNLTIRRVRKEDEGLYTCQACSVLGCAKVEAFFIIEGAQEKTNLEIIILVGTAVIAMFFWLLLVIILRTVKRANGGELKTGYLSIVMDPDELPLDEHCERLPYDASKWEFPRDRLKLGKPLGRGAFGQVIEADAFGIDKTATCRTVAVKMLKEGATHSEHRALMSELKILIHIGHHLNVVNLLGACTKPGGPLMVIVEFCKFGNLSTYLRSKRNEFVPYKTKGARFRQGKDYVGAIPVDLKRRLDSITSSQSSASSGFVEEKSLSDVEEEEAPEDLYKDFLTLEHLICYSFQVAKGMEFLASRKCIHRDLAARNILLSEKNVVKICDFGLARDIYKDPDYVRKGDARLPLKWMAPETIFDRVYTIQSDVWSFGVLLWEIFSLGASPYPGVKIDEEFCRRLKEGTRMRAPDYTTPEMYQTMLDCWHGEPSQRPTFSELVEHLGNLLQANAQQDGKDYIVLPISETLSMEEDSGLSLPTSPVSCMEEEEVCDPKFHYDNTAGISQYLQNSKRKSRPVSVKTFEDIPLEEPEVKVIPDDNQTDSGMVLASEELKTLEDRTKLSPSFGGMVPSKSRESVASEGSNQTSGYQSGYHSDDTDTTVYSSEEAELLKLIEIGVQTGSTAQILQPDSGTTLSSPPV
Chain of Tyrosine-protein kinase Fyn (P06241 whole entry): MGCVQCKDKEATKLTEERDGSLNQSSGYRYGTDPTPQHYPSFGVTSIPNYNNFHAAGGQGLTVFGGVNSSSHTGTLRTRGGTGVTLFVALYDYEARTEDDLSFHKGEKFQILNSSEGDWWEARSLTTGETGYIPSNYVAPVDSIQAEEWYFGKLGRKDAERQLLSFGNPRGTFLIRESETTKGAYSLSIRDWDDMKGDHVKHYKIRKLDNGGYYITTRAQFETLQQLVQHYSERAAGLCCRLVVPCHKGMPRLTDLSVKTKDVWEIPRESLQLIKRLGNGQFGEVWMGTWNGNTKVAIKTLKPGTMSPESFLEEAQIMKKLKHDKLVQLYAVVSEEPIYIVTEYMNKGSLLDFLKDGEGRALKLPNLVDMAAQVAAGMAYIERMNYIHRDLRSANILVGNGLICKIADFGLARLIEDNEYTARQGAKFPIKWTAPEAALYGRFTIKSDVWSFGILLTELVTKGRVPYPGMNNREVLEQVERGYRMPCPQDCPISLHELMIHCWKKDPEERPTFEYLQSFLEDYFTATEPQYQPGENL
Chain of Vascular endothelial growth factor receptor 1 (P17948 whole entry): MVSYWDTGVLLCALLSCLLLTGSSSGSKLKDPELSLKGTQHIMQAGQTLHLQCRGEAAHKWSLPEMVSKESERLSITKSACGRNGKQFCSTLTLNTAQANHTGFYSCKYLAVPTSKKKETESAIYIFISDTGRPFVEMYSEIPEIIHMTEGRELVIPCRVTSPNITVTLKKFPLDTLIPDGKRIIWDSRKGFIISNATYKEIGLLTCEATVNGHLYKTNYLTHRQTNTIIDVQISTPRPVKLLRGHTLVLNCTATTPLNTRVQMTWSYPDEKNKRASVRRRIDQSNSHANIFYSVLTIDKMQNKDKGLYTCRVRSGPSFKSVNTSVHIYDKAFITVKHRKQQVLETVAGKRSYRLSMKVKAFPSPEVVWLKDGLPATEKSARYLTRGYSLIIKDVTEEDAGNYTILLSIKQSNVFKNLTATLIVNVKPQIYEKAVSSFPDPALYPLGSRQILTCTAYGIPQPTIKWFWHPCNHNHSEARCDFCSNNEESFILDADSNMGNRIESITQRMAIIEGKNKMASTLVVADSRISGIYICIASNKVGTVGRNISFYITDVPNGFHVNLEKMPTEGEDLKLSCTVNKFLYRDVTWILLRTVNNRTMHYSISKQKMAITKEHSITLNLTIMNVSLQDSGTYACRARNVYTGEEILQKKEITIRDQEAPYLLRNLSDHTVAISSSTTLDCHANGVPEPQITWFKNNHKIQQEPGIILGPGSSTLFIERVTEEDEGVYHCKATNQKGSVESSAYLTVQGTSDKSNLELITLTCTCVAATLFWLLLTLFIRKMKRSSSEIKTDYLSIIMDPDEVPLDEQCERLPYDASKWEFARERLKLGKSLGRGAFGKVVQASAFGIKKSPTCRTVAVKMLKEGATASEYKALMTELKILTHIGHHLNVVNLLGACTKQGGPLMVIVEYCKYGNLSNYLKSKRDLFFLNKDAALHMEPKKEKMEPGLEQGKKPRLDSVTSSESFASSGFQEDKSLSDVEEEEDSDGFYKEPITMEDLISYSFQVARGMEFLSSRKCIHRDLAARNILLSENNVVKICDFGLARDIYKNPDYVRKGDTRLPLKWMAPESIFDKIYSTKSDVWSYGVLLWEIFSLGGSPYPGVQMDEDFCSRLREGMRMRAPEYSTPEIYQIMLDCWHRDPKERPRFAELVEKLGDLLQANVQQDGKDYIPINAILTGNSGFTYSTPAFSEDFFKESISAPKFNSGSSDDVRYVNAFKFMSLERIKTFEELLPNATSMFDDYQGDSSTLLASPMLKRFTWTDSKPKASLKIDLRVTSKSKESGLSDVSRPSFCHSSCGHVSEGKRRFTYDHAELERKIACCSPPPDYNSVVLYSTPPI

For `CN(C)c1ccc(NC(=S)c2ccc3ccccc3n2)cc1`, the IC50 in [1] was > 49.8 µM (inactive); at Orexin receptor type 2 [2], > 88.8 µM (inactive); on Orexin receptor type 2 [3], > 50 µM (inactive); with CHO-K1 it was > 66.3 µM (inactive); in assay [4] it was 6.04 µM (active); in assay [5], 2.86 µM (active).
`COc1ccc2sc(-c3ccc(N(C)C)cc3)c(C#CCO)c2c1`: the IC50 in [1] is > 49.7 µM (inactive); on Orexin receptor type 2 [2], 37.4 µM (inactive); on Orexin receptor type 2 [3] it was > 50 µM (inactive); in the assay with CHO-K1, > 66.2 µM (inactive); in assay [4], 10.3 µM (inactive); in assay [5], 6.09 µM (active).
Take `ON(O)c1ccc(N/N=C/c2c[nH]c3ccccc23)cc1`: the IC50 (on Caspase-3; in [6]; in assay [7]; in assay [8]) was > 99 µM (inactive) each time.
With `Cn1nc(N)c2c(-c3ccc(NC(=O)Nc4cccc(C(F)(F)F)c4)cc3)ccnc21`, the Ki was 0.398 µM (active) in assay [9]; 0.00251 µM (active) in [10]; 0.126 µM (active) in assay [11]; 0.000316 µM (active) in assay [12]; 0.794 µM (active) in assay [13]; 0.00158 µM (active) in assay [14]. For the same compound, the Ki in assay [15] was 0.501 µM (active); in [16] it was 0.2 µM (active); in assay [17], 0.00158 µM (active); in [18] it was 0.316 µM (active); in assay [19], 0.000631 µM (active); in assay [20], 0.000794 µM (active).

Broadly, the IC50 is the point on the concentration scale where inhibition reaches its midpoint. The term Ki denotes a dissociation constant, usually derived from enzyme kinetics or from competition with a known ligand.
